# Results: patent publication US20200222406A1, “METHODS FOR TREATING OR PREVENTING CARDIOVASCULAR DISORDERS AND LOWERING RISK OF CARDIOVASCULAR EVENTS” (DALCOR PHARMA UK LTD., LEATHERHEAD, ZUG BRANCH, priority 2017, published 2020)
# Legend:
# [1] = test system: flow-mediated vasodilatation; assay: Flow-mediated vasodilatation under pharmacological blockade; conditions: Adcy9^Gt/Gt mice
# Excerpt: (§1) Selective pharmacological blockade of the signaling pathways responsible for endothelial-dependent vasodilatation (Vanhoutte et al., Acta Physiol (Oxf). (2017) 219:22-96) was then used to identify the mechanism responsible for the improvement observed in Adcy9^Gt/Gt mice.
# [2] = test system: endothelial-dependent vasodilatation; assay: ACh-induced endothelial-dependent vasodilatation under selective pharmacological blockade; design: species or system mice
# Excerpt: as §1
# CETP [3] = target: T1, CETP (Homo sapiens, UniProt P11597); conditions: cited from earlier work
# T1 construct: endogenous in cells; host or cells: patients in Phase III clinical trials (plasma CETP)
# T1 sequence (P11597 18-493): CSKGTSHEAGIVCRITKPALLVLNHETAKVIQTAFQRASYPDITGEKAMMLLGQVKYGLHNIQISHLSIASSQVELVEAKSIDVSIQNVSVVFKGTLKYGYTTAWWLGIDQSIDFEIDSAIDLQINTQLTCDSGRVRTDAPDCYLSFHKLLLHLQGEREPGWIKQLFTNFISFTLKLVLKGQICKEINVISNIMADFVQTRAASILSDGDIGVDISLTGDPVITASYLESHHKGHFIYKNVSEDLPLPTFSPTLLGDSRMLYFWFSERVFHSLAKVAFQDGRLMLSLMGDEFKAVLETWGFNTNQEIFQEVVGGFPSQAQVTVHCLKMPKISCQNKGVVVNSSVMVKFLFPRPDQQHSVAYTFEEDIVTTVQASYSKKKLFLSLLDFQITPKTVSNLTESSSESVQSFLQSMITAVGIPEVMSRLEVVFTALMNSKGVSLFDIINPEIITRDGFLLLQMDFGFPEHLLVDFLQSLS
# CETP [4] = target: T1, CETP; conditions: Phase III, with atorvastatin concomitantly vs atorvastatin alone, trial terminated; cited from earlier work
# [5] = 600 mg dalcetrapib vs placebo, patients with recent ACS
smiles,measurement,setting,value
NC(=NCCC[C@H](N)C(=O)O)N[N+](=O)[O-] [L-NNA],flow-mediated vasodilatation,[1],numerically reduced
same,ACh-induced vasodilatation,[2]; Adcy9^Gt/Gt mice,inhibited significantly
same,ACh-induced vasodilatation,[2]; WT mice,inhibited significantly
CCC(CC)CC1(C(=O)Nc2ccccc2SC(=O)C(C)C)CCCCC1 [dalcetrapib],HDL-c,CETP [3]; [5],marked increase
same,cardiovascular events,CETP [3]; [5],did not show a significant reduction
same,efficacy relative to statins alone,"CETP [3]; Phase III, trial halted",lack of efficacy
Cc1ccc(Cl)c(Nc2ccccc2C(=O)O)c1Cl [meclofenamate],ACh-induced vasodilatation,[2]; Adcy9^Gt/Gt mice,inhibited
CCOC(=O)N1c2ccc(C(F)(F)F)cc2[C@@H](N(Cc2cc(C(F)(F)F)cc(C(F)(F)F)c2)C(=O)OC)C[C@H]1CC [torcetrapib],mortality,CETP [4],incidence of mortality
